Measured values reported in patent publication US11612587B2, “Composition for preventing or treating hair loss” (KYUNGPOOK NATIONAL UNIVERSITY INDUSTRY-ACADEMIC COOPERATION …, priority 2018, dated 2023).

Legend:
human hair follicles [1] = test: recovery of human hair follicle growth inhibition by 15d-PGJ2 in human hair follicle tissue culture; type: cell-based; conditions: for hair follicle growth (hair follicle length when 15d-PGJ2 was treated alone as 100%): 6 days culture, FIG. 5
Protocol: (§1) Human hair tissue was provided from the hair transplant center of Kyungpook National University and used for the experiment by separating the hair follicles from the scalp tissue with the consent of the hair transplant patient (IRB project number: KNUH2014-02-023). After treatment of each compound, human hair tissue was prepared by incubating a 37° C. CO2 incubator for 6 days using Williams E media (Sigma, USA) containing 2 mM L-glutamine, 100 U/ml streptomycin, and 10 ng/ml hydrocortisone and the length of growth was measured using a microscope.
(§2) The data from the above experiments were expressed as mean±SEM. For statistical processing, the mean deviation of each group was measured using Student's t-test, and it was considered significant at p<0.005 and p<0.05.

human hair follicles [2] = test: toxicity / growth of cultured human hair follicle tissue treated with the compound alone; type: cell-based; conditions: 6 days culture
Protocol: as §1, §2

SMILES: CC(C)(C)OC(=O)CN1C(=O)C2(CCNC2=O)c2cc(Cl)ccc21 (stereo not shown) [Compound 2]
- hair follicle growth inhibited by 15d-PGJ2 (human hair follicles [1]; Compound 2 0.5 μM, 1 μM simultaneously with 15d-PGJ2 (10 μM), vs 15d-PGJ2 only, FIG. 7): significantly increased
- toxicity in human hair follicle tissue (hair follicle growth vs untreated group) (human hair follicles [2]; compound alone at 0.1 to 10 μM, FIG. 6): no significant difference

SMILES: O=C(O)CN1C(=O)C2(CC(=O)N(Cc3cc(Cl)ccc3F)C2=O)c2cc(Cl)ccc21 (stereo not shown) [Compound 1]
- hair follicle growth (hair follicle length when 15d-PGJ2 was treated alone as 100%) (human hair follicles [1]; 0.1 nM compound simultaneously with 15d-PGJ2 (10 μM)): 108%
- hair follicle growth (hair follicle length when 15d-PGJ2 was treated alone as 100%) (human hair follicles [1]; 1 nM compound simultaneously with 15d-PGJ2 (10 μM)): 194%
- hair follicle growth (hair follicle length when 15d-PGJ2 was treated alone as 100%) (human hair follicles [1]; 10 nM compound simultaneously with 15d-PGJ2 (10 μM)): 234%
- toxicity in human hair follicle tissue (hair follicle growth vs untreated group) (human hair follicles [2]; compound alone at 0.1-10 nM, FIG. 4): no significant difference

SMILES: CCCCC/C=C/C=C1/C(=O)C=C[C@@H]1C/C=C\CCCC(=O)O [Compound 15d-PGJ2, 15-deoxy-Δ^12,14-prostaglandin J2, reference compound]
- decrease of hair follicle growth (human hair follicles [2]; 15d-PGJ2 alone at 10 μM, FIG. 1): ⅓
